According to PubChem BioAssay (NCI):
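Step 1: Grow cells in 96-well plates. Step 2: Expose to compound for 48 hours at 5 concentrations. Step 3: Interpolate endpoints linearly; if unreached, use highest concentration. TGI denotes the concentration required for complete inhibition of growth.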

Legend:
Test in all cases: inhibition of tumour cell growth, NCI panel, 48 h
HL-60(TB) leukemia = system: HL-60(TB) leukemia
TK-10 renal = system: TK-10 renal
SF-268 CNS = system: SF-268 CNS
RXF 393 renal = system: RXF 393 renal
786-0 renal = system: 786-0 renal
OVCAR-3 ovarian = system: OVCAR-3 ovarian
U251 CNS = system: U251 CNS
UACC-62 melanoma = system: UACC-62 melanoma
SNB-19 CNS = system: SNB-19 CNS
KM12 colon = system: KM12 colon
M14 melanoma = system: M14 melanoma
HCT-116 colon = system: HCT-116 colon
IGROV1 ovarian = system: IGROV1 ovarian
OVCAR-8 ovarian = system: OVCAR-8 ovarian
SK-OV-3 ovarian = system: SK-OV-3 ovarian
NCI-H226 lung = system: NCI-H226 lung
HS 578T breast = system: HS 578T breast
NCI/ADR-RES ovarian = system: NCI/ADR-RES ovarian
COLO 205 colon = system: COLO 205 colon
HCT-15 colon = system: HCT-15 colon
NCI-H460 lung = system: NCI-H460 lung
RPMI-8226 leukemia = system: RPMI-8226 leukemia
OVCAR-5 ovarian = system: OVCAR-5 ovarian
ACHN renal = system: ACHN renal
HOP-62 NSCLC = system: HOP-62 NSCLC
LOX IMVI melanoma = system: LOX IMVI melanoma
MOLT-4 leukemia = system: MOLT-4 leukemia
DU-145 prostate = system: DU-145 prostate
NCI-H522 lung = system: NCI-H522 lung
MDA-MB-435 = system: MDA-MB-435
HOP-92 NSCLC = system: HOP-92 NSCLC
UACC-257 melanoma = system: UACC-257 melanoma
MDA-N = system: MDA-N
HCC-2998 colon = system: HCC-2998 colon
CAKI-1 renal = system: CAKI-1 renal
HT29 colon = system: HT29 colon
MALME-3M melanoma = system: MALME-3M melanoma
K-562 leukemia = system: K-562 leukemia
SK-MEL-2 melanoma = system: SK-MEL-2 melanoma
T-47D breast = system: T-47D breast
SF-295 CNS = system: SF-295 CNS
MCF7 breast = system: MCF7 breast
SW-620 colon = system: SW-620 colon
BT-549 breast = system: BT-549 breast
SN12C renal = system: SN12C renal
MDA-MB-231 breast = system: MDA-MB-231 breast
SK-MEL-5 melanoma = system: SK-MEL-5 melanoma
NCI-H23 lung = system: NCI-H23 lung
A549 NSCLC = system: A549 NSCLC
EKVX NSCLC = system: EKVX NSCLC
CCRF-CEM leukemia = system: CCRF-CEM leukemia
SNB-75 CNS = system: SNB-75 CNS
OVCAR-4 ovarian = system: OVCAR-4 ovarian
UO-31 renal = system: UO-31 renal
PC-3 prostate = system: PC-3 prostate

Measured: TGI

COC(=O)[C@H](Cc1c[nH]c2ccccc12)NC(=O)OCC1OC(n2cc(C)c(=O)[nH]c2=O)CC1N=[N+]=[N-] (stereo not given in full)
> 100 µM: all assays above
